Eight compounds from patent US20240108006A1, “PESTICIDALLY ACTIVE HETEROAROMATIC COMPOUNDS” (SYNGENTA CROP PROTECTION AG, priority 2021, published 2024) can be followed below.

Data set [1] has as its system Myzus persicae. The experiment in a line: Example B7: Myzus persicae (green peach aphid), intrinsic activity, sucrose solution 24-well. The class given is in vivo. As to conditions: 120 h, application rate of 12.5 ppm, 5 days after infestation, read-out: control (mortality). The essentials:
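Compounds from 10,000 ppm DMSO stocks were mixed into sucrose solution in wells at a rate of 12.5 ppm. Aphid-infested pea seedlings were placed on a Parafilm membrane over the solution, so aphids fed through it. Mortality was scored 5 days after infestation.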

The test system of a further data set is Euschistus heros. The experiment in a line: Example B3: Euschistus heros (neotropical brown stink bug), soybean leaves, N2 nymphs. The class given is in vivo. Conditions: 120 h, application rate of 200 ppm, 5 days after infestation, read-out: control in at least one of the two categories (mortality or growth inhibition). The procedure:
Example B3: Euschistus heros (Neotropical Brown Stink Bug)
Soybean leaves on agar in 24-well microtiter plates were sprayed with aqueous test solutions prepared from 10,000 ppm DMSO stock solutions. After drying the leaves were infested with N2 nymphs. The samples were assessed for mortality and growth inhibition in comparison to untreated samples 5 days after infestation.
The following compounds gave an effect of at least 80% control in at least one of the two categories (mortality or growth inhibition) at an application rate of 200 ppm: […]

Data set [2] deals with Myzus persicae. The experiment in a line: Example B5: Myzus persicae (green peach aphid), feeding/contact activity. Conditions: 144 h, application rate of 200 ppm, 6 days after infestation. The class given is in vivo. The procedure:
Example B5: Myzus persicae (Green Peach Aphid):Feeding/Contact Activity
Sunflower leaf discs were placed onto agar in a 24-well microtiter plate and sprayed with aqueous test solutions prepared from 10,000 ppm DMSO stock solutions. After drying, the leaf discs were infested with an aphid population of mixed ages. The samples were assessed for mortality 6 days after infestation.

The test system of data set [3] is Myzus persicae. The experiment in a line: Example B6: Myzus persicae (green peach aphid), systemic activity, pea seedlings. Type of data set: in vivo. As to conditions: 144 h, test rate of 24 ppm, 6 days after placing seedlings into test solutions. As for the experimental part:
Example B6: Myzus persicae (Green Peach Aphid). Systemic Activity
Roots of pea seedlings infested with an aphid population of mixed ages were placed directly into aqueous test solutions prepared from 10,000 DMSO stock solutions. The samples were assessed for mortality 6 days after placing seedlings into test solutions.

The next data set has as its system Spodoptera littoralis. The experiment in a line: Example B9: Spodoptera littoralis (Egyptian cotton leaf worm), cotton leaf discs, L1 larvae. Type of data set: in vivo. Conditions: foliar, 72 h, application rate of 200 ppm, 3 days after infestation, read-out: control in at least one of the three categories (mortality, anti-feedant effect, or growth inhibition). A digest of the protocol: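 Five L1 larvae placed on sprayed, dried cotton leaf discs; spray solutions aqueous, from 10,000 ppm DMSO stocks. Control given when mortality, anti-feedant effect or growth inhibition exceeds untreated samples at 3 days.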

In a further data set the test system is Plutella xylostella. As to the kind of experiment: Example B8: Plutella xylostella (diamond back moth), artificial diet 24-well, eggs. Type of data set: in vivo. As to conditions: 192 h, application rate of 200 ppm, 8 days after infestation, read-out: effect in at least one of the two categories (mortality or growth inhibition). The essentials:
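Plutella eggs placed onto dried, compound-treated artificial diet, the aqueous test solutions diluted from 10,000 ppm DMSO stocks. Eight days post-infestation, larvae rated for mortality and growth inhibition relative to untreated controls.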

Another data set has as its system Chilo suppressalis. The experiment in a line: Example B1: Chilo suppressalis (striped rice stemborer), artificial diet, L2 larvae. As to conditions: 144 h, application rate of 200 ppm, 6 days after infestation, read-out: control in at least one of the three categories (mortality, anti-feedant effect, or growth inhibition). Type of data set: in vivo. A digest of the protocol: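 L2 larvae (6-8 per well) were placed on dried artificial diet that had been dosed with aqueous dilutions of 10,000 ppm DMSO stock solutions. After 6 days, control was credited if mortality, antifeedant effect or growth inhibition was higher than in untreated samples.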

The next data set relates to Diabrotica balteata. As to the kind of experiment: Example B2: Diabrotica balteata (corn root worm), maize sprouts, L2 larvae. Type of data set: in vivo. Conditions: 96 h, application rate of 200 ppm, 4 days after infestation, read-out: control in at least one of the two categories (mortality or growth inhibition). The essentials:
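Maize sprouts on agar sprayed with aqueous test solutions made from 10,000 ppm DMSO stocks, dried, then infested with 6 to 10 L2 larvae per well. Mortality and growth inhibition assessed versus untreated samples 4 days after infestation; application rate 200 ppm.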

Bounds are passed on as bounds.

On to `C[C@@H](c1ncnn1-c1ncccn1)N1CCN(c2cc(OC(F)(F)C(F)F)c(Cl)cc2Cl)C1=O`, for which the melting point lay within 207 to 209 °C.

Consider `C[C@H](NC(=O)Nc1ccc(Br)c(Br)c1)c1nccnc1-c1ncccn1`, for which the melting point is 220 to 222 °C.

The compound `C[C@H](NC(=O)Nc1cc(Cl)c(Cl)cc1I)c1ncnn1-c1ncccn1` (stereo in doubt) displayed a melting point of 236 to 249 °C.

Turning to `C[C@H](NC(=O)N1CCc2cc(C(F)(F)F)ncc21)c1ncnn1-c1ncccn1` [Example P172, N-[(1S)-1-(2-pyrimidin-2-yl-1,2,4-triazol-3-yl)ethyl]-5-(trifluoromethyl)-2,3-dihydropyrrolo[2,3-c]pyridine-1-carboxamide], in the data set on Myzus persicae [1], the mortality at 12.5 ppm is no less than 80%. For the same compound, the percent control (mortality or growth inhibition) at 200 ppm in the data set with Euschistus heros and in the data set with Diabrotica balteata was no less than 80% each time. The mortality at 200 ppm with Myzus persicae [2] was no less than 80%. Moreover, the mortality at 24 ppm in the data set on Myzus persicae [3] was no less than 80%. The percent control (mortality, anti-feedant effect or growth inhibition) at 200 ppm in the data set on Spodoptera littoralis and with Chilo suppressalis was no less than 80% in each case. Moreover, the percent effect (mortality or growth inhibition) at 200 ppm in the data set with Plutella xylostella is no less than 80%.

For the compound `CC(NC(=O)Nc1cnc(C(F)(F)F)cc1Cl)c1nccnc1-c1ncccn1` (stereo not shown) [Example P244, 1-[4-chloro-6-(trifluoromethyl)-3-pyridyl]-3-[1-(3-pyrimidin-2-ylpyrazin-2-yl)ethyl]urea], in the data set on Myzus persicae [1], the mortality at 12.5 ppm was no less than 80%. For the same compound, in the data set on Myzus persicae [2], the mortality at 200 ppm was no less than 80%. Moreover, in the data set on Myzus persicae [3], the mortality at 24 ppm is no less than 80%. Also, the percent control (mortality, anti-feedant effect or growth inhibition) at 200 ppm in the data set on Spodoptera littoralis and in the data set on Chilo suppressalis was no less than 80% throughout. Moreover, in the data set with Plutella xylostella, the percent effect (mortality or growth inhibition) at 200 ppm was no less than 80%.

For the compound `C[C@H](NC(=O)N(C)c1cnc(C(F)(F)F)cc1Br)c1ncnn1-c1ncccn1` [Example P273, 1-[4-bromo-6-(trifluoromethyl)-3-pyridyl]-1-methyl-3-[(1S)-1-(2-pyrimidin-2-yl-1,2,4-triazol-3-yl)ethyl]urea], in the data set on Myzus persicae [1], the mortality at 12.5 ppm is no less than 80%. The percent control (mortality or growth inhibition) at 200 ppm in the data set with Euschistus heros was no less than 80%. For the same compound, the mortality at 24 ppm in the data set on Myzus persicae [3] was no less than 80%. Besides, the percent control (mortality, anti-feedant effect or growth inhibition) at 200 ppm with Spodoptera littoralis and in the data set on Chilo suppressalis was no less than 80% throughout. For the same compound, the percent effect (mortality or growth inhibition) at 200 ppm in the data set on Plutella xylostella is no less than 80%.

In the case of `COc1cc(C(F)(F)F)ncc1NC(=O)N[C@@H](C)c1ncnn1-c1ncccn1` [Example P348, 1-[4-methoxy-6-(trifluoromethyl)-3-pyridyl]-3-[(1S)-1-(2-pyrimidin-2-yl-1,2,4-triazol-3-yl)ethyl]urea], the mortality at 12.5 ppm in the data set with Myzus persicae [1] is no less than 80%. In addition, the percent control (mortality or growth inhibition) at 200 ppm with Euschistus heros is no less than 80%. In the data set with Myzus persicae [2], this compound showed a mortality at 200 ppm of no less than 80%. In addition, the mortality at 24 ppm in the data set on Myzus persicae [3] is no less than 80%. Moreover, the percent control (mortality, anti-feedant effect or growth inhibition) at 200 ppm in the data set on Spodoptera littoralis and in the data set with Chilo suppressalis was no less than 80% each time.

`C[C@@H](c1ncnn1-c1ncccn1)N(C)C(=O)Nc1cnc(C(F)(F)F)cc1Cl` [Example P397, 3-[4-chloro-6-(trifluoromethyl)-3-pyridyl]-1-methyl-1-[(1S)-1-(2-pyrimidin-2-yl-1,2,4-triazol-3-yl)ethyl]urea]: the mortality at 12.5 ppm in the data set on Myzus persicae [1] is no less than 80%. Besides, in the data set on Euschistus heros, the percent control (mortality or growth inhibition) at 200 ppm is no less than 80%. In addition, in the data set with Myzus persicae [3], the mortality at 24 ppm is no less than 80%. In addition, the percent effect (mortality or growth inhibition) at 200 ppm with Plutella xylostella was no less than 80%. Moreover, the percent control (mortality, anti-feedant effect or growth inhibition) at 200 ppm in the data set on Chilo suppressalis was no less than 80%.

The melting point is the temperature, or range, at which the solid turns liquid. The term mortality denotes the percentage killed.
